According to ChEMBL document CHEMBL1165911, “Elaborate ligand-based pharmacophore exploration and QSAR analysis guide the synthesis of novel pyridinium-based potent beta-secretase inhibitory leads” (Bioorg Med Chem, 2010):
Square brackets hold non-standard residues; d marks the D form. Peptide text beside a SMILES is read from it. * marks the point of attachment. ξ: configuration not given here. Cbz = O=C(OCc1ccccc1)*; Boc = CC(C)(C)OC(=O)*; ξV = CC(C)C(N)C(=O)O; OBn = c1ccc(CO*)cc1; Bn = c1ccc(C*)cc1

Target: Beta-secretase 1 (Homo sapiens, UniProt P56817)
Sequence (P56817 whole entry): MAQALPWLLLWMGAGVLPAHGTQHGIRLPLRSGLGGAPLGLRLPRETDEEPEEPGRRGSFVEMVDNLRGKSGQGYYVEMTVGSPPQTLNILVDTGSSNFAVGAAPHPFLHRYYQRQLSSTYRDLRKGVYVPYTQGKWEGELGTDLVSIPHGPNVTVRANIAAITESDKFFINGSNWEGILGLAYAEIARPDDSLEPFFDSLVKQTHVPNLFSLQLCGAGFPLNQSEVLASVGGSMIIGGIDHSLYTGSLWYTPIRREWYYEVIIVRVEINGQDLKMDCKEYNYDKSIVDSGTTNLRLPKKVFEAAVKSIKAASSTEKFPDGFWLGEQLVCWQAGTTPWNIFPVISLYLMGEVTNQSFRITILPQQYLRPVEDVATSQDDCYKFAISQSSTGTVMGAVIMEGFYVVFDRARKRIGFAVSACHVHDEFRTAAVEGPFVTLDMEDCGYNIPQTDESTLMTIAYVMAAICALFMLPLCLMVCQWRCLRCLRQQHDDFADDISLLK

IC50	SMILES
100 µM	COc1cc(/C=N/Nc2nc(Nc3ccccc3)nc(N3CCOCC3)n2)cc(Br)c1O
1000 µM	Cc1cc(C)nc(NS(=O)(=O)c2ccc(Nc3nc(-c4ccc(C(C)C)cc4)cs3)cc2)n1
100 µM	CC(=O)Nc1cc(C(=O)NCc2cc(F)cc(Cl)c2)ccc1Sc1ccc(Cl)cc1
100 µM	CN(C)CCNC(=O)c1c[nH]c2ccc(S(=O)(=O)N3CCc4ccccc4C3)cc2c1=O
100 µM	COc1cc2[nH]c(=O)n(Cc3ccc(C(=O)NCc4ccc(C)cc4)cc3)c(=O)c2cc1OC
100 µM	CCOc1cc(C2C(C(=O)OCc3ccccc3)=C(C)NC3=C2C(=O)CC(C)(C)C3)cc(Br)c1O (stereo not given)
100 µM	CCCc1cc(=O)oc2c(C)c(OCC(=O)NCC(=O)NCC(=O)O)ccc12
100 µM	CCc1ccc(N2C(=O)Nc3ccc(Br)cc3C2(O)C(=O)NCC(C)CN2CCC(C)CC2)cc1 (stereo not given)
100 µM	Clc1ccc(/C=N/Nc2nc(Nc3cccc(Br)c3)nc(N3CCOCC3)n2)cc1
25 µM	C=CN(C=C)C(=O)c1cc(OCC(=O)NCCCCCN)cc(C(=O)N[C@H](C)c2ccccc2)c1
100 µM	O=C(CN1CCN(Cc2ccccc2)CC1)N/N=C\c1cc(I)cc(I)c1O
100 µM	COc1ccc(OC)c(/N=c2\oc3c(C)ncc(CO)c3cc2C(=O)Nc2ccc(Cl)cc2)c1
500 µM	COc1cc(/C=N\NC(=O)c2ccccc2OCCOc2ccccc2)cc(Br)c1O
500 µM	Cc1ccc(NC(=O)c2cc(NC(=O)CCCC(=O)O)ccc2N2CCOCC2)cc1
100 µM	Cc1cccc(N(C)S(=O)(=O)c2ccc3ncc(C(=O)NCCN4CCOCC4)c(O)c3c2)c1
500 µM	CC(NC(=O)NCCNC(=O)NC(C)C(=O)O)C(=O)O (stereo not given)
100 µM	CSc1ccc(C(O)C(CO)NC(=O)c2cc3c(n(-c4ccc(Cl)cc4)c2=O)CC(C)(C)CC3=O)cc1 (stereo not given)
100 µM	O=C(NCc1ccccc1Cl)c1ccc(N2CC3CC(C2)c2cccc(=O)n2C3)c(NS(=O)(=O)c2ccc3c(c2)OCCO3)c1 (stereo not given)
11.9 µM	CCOc1nc(NCCN2CCOCC2)nc(NNc2ccc(I)cc2C)n1
500 µM	COc1cccc(C(=O)OCC(=O)NCc2ccc(Cl)cc2Cl)c1O
100 µM	CCN1CCCC1CNC(=O)c1ccc2c(=O)n(Cc3ccc(Cl)cc3)c(=S)[nH]c2c1 (stereo not given)
100 µM	Clc1nc(NCCN2CCOCC2)nc(NCc2ccc(I)cc2)n1
1 µM	COc1cccc2cc(C(=O)Nc3cc(Br)ccc3N3CCN(C(=O)OC(C)(C)C)CC3)c(=O)oc12

IC50	SMILES
100 µM	NNC(=O)CN1C(CN2CCOCC2)=Nc2ccc(Br)cc2C1c1ccccc1 (stereo not given)
100 µM	Cc1ccc(C)c(Nc2nc(N/N=C/c3cc(Br)cc(Br)c3O)nc(N3CCOCC3)n2)c1
100 µM	CCN1CCCC1CNC(=O)c1ccc2c(=O)n(Cc3cccc(Br)c3)c(=S)[nH]c2c1 (stereo not given)
100 µM	O=C(NCCc1ccccc1)c1c[nH]c2ccc(S(=O)(=O)N3CCc4ccccc4C3)cc2c1=O
100 µM	Cc1ccc(CNC(=O)c2ccc(N3CC4CC(C3)c3cccc(=O)n3C4)c(NS(=O)(=O)c3ccc4c(c3)OCCO4)c2)cc1 (stereo not given)
7.1 µM	O=C(O)c1cc(-c2ccc(/C=N/Nc3nc(Nc4ccc(F)cc4)nc(N4CCOCC4)n3)o2)ccc1Cl
100 µM	O=C(Nc1ccccc1C(=O)NCC(O)CNC(=O)c1ccccc1NC(=O)c1ccccc1)c1ccccc1
100 µM	COc1ccc(-n2nc(C(=O)NCC(=O)Nc3cccc(C)n3)c3ccccc3c2=O)cc1Cl
500 µM	Cc1cc(O)c2c(C)c(CC(=O)N[C@H](CCCNC(N)=O)C(=O)O)c(=O)oc2c1
100 µM	NS(=O)(=O)c1ccc(CCNC(=O)CCc2nc3sc4c(c3c(=O)[nH]2)CCCC4)cc1
100 µM	O=C(NCCc1ccc(Cl)cc1)c1ccc(Cn2c(=S)[nH]c3ccc(N4CCOCC4)cc3c2=O)cc1
10 µM	COc1cccc2cc(C(=O)Nc3cc(Br)ccc3N3CCOCC3)c(=O)oc12
23 µM	C[C@@H](NC(=O)c1cc(C(=O)N[C@@H](Cc2ccccc2)[C@H](O)CN)cc(N(C)S(C)(=O)=O)c1)c1ccc(F)cc1
63 µM	C[C@@H](NC(=O)c1cc(NS(C)(=O)=O)cc(C(=O)N[C@@H](Cc2ccccc2)[C@H](O)CNC2CC2)c1)c1ccc(F)cc1
100 µM	CCCCc1ccc(Nc2nc3ccccc3nc2NS(=O)(=O)c2ccc(Cl)cc2)cc1
100 µM	O=C(O)c1cccc(-c2ccc(/C=N/Nc3nc(Nc4ccccc4)nc(N4CCCCC4)n3)o2)c1
500 µM	Cc1oc(-c2ccccc2)cc1C(=O)NCC(=O)NC(C(=O)O)C(C)C (stereo not given)
500 µM	O=C(O)CCCNC(=O)CCCCC(=O)C(c1ccccc1)c1ccccc1
14 µM	C[C@@H](NC(=O)c1cc(C(=O)N[C@@H](Cc2ccccc2)[C@H](O)CNC2CC2)cc(N(C)S(=O)(=O)N(C)C)c1)c1ccccc1
100 µM	CC1CCCCN1CCNC(=O)c1cc(=O)[nH]c2ccc(S(=O)(=O)N3CCCCC3)cc12 (stereo not given)
48.1 µM	Cc1ccc(Nc2nc(CN3CCOCC3)nc(N/N=C/c3cc(Br)cc(Br)c3O)n2)cc1
100 µM	COc1cc(/C=N/Nc2nc(Nc3ccc(F)cc3)nc(N3CCCCC3)n2)ccc1OCC(=O)O
100 µM	Oc1ccc(-c2ccccc2)cc1CN1CCN(Cc2cc(-c3ccccc3)ccc2O)CC1

IC50	SMILES
100 µM	C=CCn1c(SCC(=O)Nc2ccc(S(N)(=O)=O)cc2)nc2sc3c(c2c1=O)CCCC3
100 µM	CCOC(=O)C(Cc1ccc(O)cc1)NS(=O)(=O)c1ccc2c(c1)C(=O)c1ccccc1C2=O (stereo not given)
100 µM	Clc1ccc(/C=N/Nc2nc(Nc3ccccc3)nc(Nc3ccccc3)n2)cc1Cl
100 µM	O=C(NCc1ccc(F)cc1)c1ccc(N2CC3CC(C2)c2cccc(=O)n2C3)c(NS(=O)(=O)c2ccc3c(c2)OCCO3)c1 (stereo not given)
15 µM	C[C@@H](NC(=O)c1cc(C(=O)N[C@@H](Cc2ccccc2)[C@H](O)CNC(C)(C)C)cc(N(C)S(C)(=O)=O)c1)c1ccc(F)cc1
100 µM	COc1nc(NCCN2CCOCC2)nc(Nc2ccc(I)cc2)n1
100 µM	O=C(Nc1ccc(Cl)c(C(F)(F)F)c1)C(NS(=O)(=O)c1cccs1)c1ccccc1 (stereo not given)
100 µM	CCN1CCN(CCNC(=O)c2ccc3c(=O)n(Cc4ccc(Cl)cc4)c(=S)[nH]c3c2)CC1
50 µM	COc1ccc(C(=O)Nc2ccccc2C(=O)NC(CCSC)C(=O)NNC(=O)Sc2nc3ccccc3s2)cc1 (stereo not given)
100 µM	O=C(CC1Sc2ccccc2NC1=O)Nc1ccccc1SC(F)(F)C(F)(F)C(F)(F)F (stereo not given)
100 µM	C[C@H](NC(=O)c1cc(OCC(=O)NCCCCCN)cc(OS(=O)(=O)Cc2ccccc2)c1)c1ccccc1
100 µM	CC1CCN(S(=O)(=O)c2ccc3[nH]c(=O)cc(C(=O)NCCCN4CCCC4)c3c2)CC1
500 µM	Cc1c(CC(=O)N[C@H](CCCNC(N)=O)C(=O)O)c(=O)oc2cc(O)ccc12
5 µM	COc1cccc2cc(C(=O)Nc3cc(Br)ccc3N3CCN(Cc4ccccc4)CC3)c(=O)oc12
500 µM	CCc1cc(=O)oc2c(C)c(OC(=O)NCC(=O)NCC(=O)O)ccc12
152 µM	O=C(O)c1cc(-c2ccc(/C=N/Nc3nc(Nc4ccccc4)nc(N4CCCCC4)n3)o2)ccc1Cl
100 µM	Oc1c(I)cc(I)cc1/C=N/Nc1nc(NCc2ccccc2)nc(N2CCOCC2)n1
100 µM	CCc1ccc(N2C(=O)Nc3ccc(Br)cc3C2(O)C(=O)NCc2ccccc2)cc1 (stereo not given)
100 µM	O=C(NCc1ccc(Cl)cc1)c1ccc(N2CC3CC(C2)c2cccc(=O)n2C3)c(NS(=O)(=O)c2ccc3c(c2)OCCO3)c1 (stereo not given)
27.9 µM	O=C(O)c1cc(-c2ccc(/C=N/Nc3nc(Nc4ccc(F)cc4)nc(N4CCCCC4)n3)o2)ccc1O
100 µM	O=C(Nc1ccc(Cl)cc1C(=O)c1ccccc1)c1ccc(Nc2nc(-c3ccccc3)c3cc(Br)ccc3n2)cc1
100 µM	O=C1CSC(c2ccc(Cl)cc2)N1Nc1nc(Nc2ccccc2)nc(N2CCCCC2)n1 (stereo not given)
100 µM	CN(C)c1nc(N/N=C/c2cc(I)cc(I)c2O)nc(N2CCOCC2)n1

IC50	SMILES
20 µM	O=C(Nc1cc(Br)ccc1N1CCOCC1)c1cccc2ccccc12
500 µM	Cc1c(CC(=O)N[C@H](CCCNC(N)=O)C(=O)O)c(=O)oc2c(C)c(O)ccc12
100 µM	CCSc1sc(CC)cc1C1C(C(=O)Nc2ccc(C)cn2)=C(C)NC2=C1C(=O)CC(C)(C)C2 (stereo not given)
500 µM	O=C(O)CC(NNc1nc(NCCO)nc(N2CCOCC2)n1)c1ccccc1 (stereo not given)
100 µM	Cc1ccc(Nc2nc(N/N=C/c3cccc(Br)c3)nc(N3CCOCC3)n2)cc1
100 µM	O=C(NCCc1ccc(Cl)cc1)C1CCC(CNc2nc(=S)[nH]c3ccccc23)CC1 (stereo not given)
10 µM	C[C@@H](NC(=O)c1cc(C(=O)N[C@@H](Cc2ccccc2)[C@H](O)CNC2CC2)cc(N(C)S(C)(=O)=O)c1)c1ccc(F)cc1
100 µM	CC1CCCCN1CCNC(=O)c1cc(=O)[nH]c2ccc(S(=O)(=O)N3CCOCC3)cc12 (stereo not given)
100 µM	CCCCCCc1nc2ccccc2c(=O)n1NC(O)c1c(O)c2cccc3c2n(c1=O)CCC3 (stereo not given)
100 µM	CCSc1scc(CC)c1C1C(C(=O)Nc2ccc(Br)cn2)=C(C)NC2=C1C(=O)CC(C)(C)C2 (stereo not given)
1 µM	CC(C)(C)OC(=O)N1CCN(c2ccc(Br)cc2NC(=O)c2cccc3ccccc23)CC1
41 µM	CC(C)S(=O)(=O)N(C)c1cc(C(=O)N[C@@H](Cc2ccccc2)[C@H](O)CNC2CC2)cc(C(=O)N[C@H](C)c2ccccc2)c1
500 µM	CC(C)C(NC(=O)CNC(=O)CNC(=O)OCc1ccccc1)C(=O)O (stereo not drawn) (Cbz-Gly-Gly-[ξV]-OH)
100 µM	O=C(NCc1ccccc1)c1ccc(N2CC3CC(C2)c2cccc(=O)n2C3)c(NS(=O)(=O)c2ccc3c(c2)OCCO3)c1 (stereo not given)
5 µM	O=C(Nc1cc(Br)ccc1N1CCN(Cc2ccccc2)CC1)c1cccc2ccccc12
100 µM	FC(F)(Cl)Oc1ccc(Nc2nc(NCc3ccccc3)nc(N3CCCCC3)n2)cc1
100 µM	O=C(NCc1ccccc1)c1c[nH]c2ccc(S(=O)(=O)NC3CCCCNC3=O)cc2c1=O (stereo not given)
253 µM	CCc1ccc(Sc2c(N)c3c(c(N)c2Sc2ccc(CC)cc2)C(=O)c2ccccc2C3=O)cc1
100 µM	CC(C)(C)OC(=O)NC(CC(=O)OCc1ccccc1)C(=O)NC(COCc1ccccc1)C(=O)NCC(=O)OCc1ccccc1 (stereo not given) (Boc-Asp(OBn)-Ser(Bn)-Gly-OBn; configuration not given here)
100 µM	Cc1ccc(Nc2nc(N/N=C/c3ccc(Cl)c(Cl)c3)nc(N3CCOCC3)n2)c(Cl)c1

SMILES	IC50
CCNC[C@@H](O)[C@H](Cc1ccccc1)NC(=O)c1cc(C(=O)N[C@H](C)c2ccc(F)cc2)cc(N(C)S(C)(=O)=O)c1	15 µM
